{"source": "patent US20260365692A1", "about": "“COMPOSITIONS COMPRISING PROTEINS DISSOLVED IN FLUORINATED SOLVENTS, AND METHODS OF MAKING AND USING THE SAME” (priority 2022, published 2026)", "key": {"β-gal": {"test_system": "β-gal", "test": "Surface plasmon resonance, β-Gal", "assay_type": "binding", "conditions": "after reference correction", "source_text": "FIGS. 14A-14L depict circular dichroism spectra of Hb (FIG. 14A), GFP (FIG. 14B), BSA (FIG. 14C), β-Gal (FIG. 14D), rabbit serum IgG (FIG. 14E), transferrin (FIG. 14F), and urease (FIG. 14G) in the absence (black line) or presence (dashed lines) of PFNA. Increasing dash sequence indicated higher concentration of PFNA. FIG. 14H: Change in molar ellipticity at 216 nm (Δθ216) of PFNA-treated proteins, relative to native controls, as a function of increasing ligand concentration. FIG. 14I: Percentage change in secondary structural motifs of Hb, β-Gal and IgG between the native protein and 1 mM PFNA treated samples. β-sheet structures were further differentiated into parallel and antiparallel conformations. Hb, β-Gal and IgG were prioritized for analysis based on their significant spectral shift in the presence of 1 mM PFNA. FIGS. 14J-14L: Sensograms for BSA (FIG. 14J), β-gal (FIG. 14K), and IgG (FIG. 14L) showing relative response (R.U.) at 10, 25, 50, 75, and 100 μM.\nTo test this assertion, PFNA binding to three exemplary proteins, BSA, β-Gal and IgG, was studied via isothermal titration calorimetry (ITC) and surface plasmon resonance (SPR) techniques. […] SPR analysis yielded similar results, with sensorgrams (FIGS. 14J-14L) that diverged from a simple 1:1 ligand-protein model. […]"}, "A549 cells": {"test_system": "A549 cells", "test": "Protein uptake in A549 cells, GFP", "assay_type": "cell-based, human", "conditions": "PFNA, 24-hour exposure", "experimental": "FIGS. 17A-17B depict the uptake of GFP in human lung A549 cells after 2 and 24 hours of incubation in the absence/presence of PFNA. Results are shown in relative fluorescence units (RFU).\nMultiplexed in vitro assays were employed to probe the influence of PFNA interactions on protein uptake and transport in cells. A549 and PC9 human lung cells were prioritized for these assays given that pulmonary tissue is a primary site of perfluoroalkyl bioaccumulation in humans (Reference: 63). Before initiating experiments, cellular toxicity assays established a maximum tolerated dose of PFNA to avoid confounding protein transport experiments with substantive cell death. Protein uptake was then studied using green fluorescent protein (GFP) and bovine serum albumin (BSACy5) as model biologics that employ non-specific pinocytic mechanisms for cellular entry."}, "tested proteins": {"test_system": "tested proteins", "test": "Induction of non-native protein secondary structure", "experimental": "To explore PFNA-mediated changes in protein structure, dose-response circular dichroism (CD) studies were performed (FIG. 14A-14G). […] Remarkably, these structural changes endured even at sub-stoichiometric PFNA:protein ratios (see 0.001 mM PFNA in […]; protein concentration was constant at 0.01 mM).\nPrior studies have shown ≥15 vol % of TFE in water, which represents a 2M total concentration, was required to induce protein structural transitions. […] In addition, PFNA appeared to favor modulation of […] structures over α-helices, which can be interpreted by monitoring changes in both ellipticity at 216 nm (FIG. 14H) and percentage of secondary structural motifs (FIG. 14I) relative to the native protein. […] The dose-dependent reduction in the signal after analyte injection may have been due to conformational change of the target protein, as has been observed in prior studies."}, "[1]": {"test": "Thermal stability of proteins in PFNA/PFOc (bioactivity after heating)", "assay_type": "physicochemical", "conditions": "PFNA/PFOc mixture compared to aqueous solution, 30 min heating", "experimental": "FIGS. 16A-16C depict that the thermal stability of β-gal, GFP, and Trypsin is enhanced when the proteins are dissolved in a PFNA/PFOc mixture, compared to aqueous solutions of the proteins.\nPFNA enhanced thermal stability in PFOc Differential scanning calorimetry (DSC) measurements were performed on 5 test proteins dissolved in either PBS (Aq.) or Perfluorooctane (PFOc). PFNA dispersant was added only for the PFOc conditions. DSC was performed at 2 °C/min ramp from 40 °C-100 °C. Melting temperature (Tm) was determined based on positive inflection of heat capacity curve, indicating protein unfolding (FIG. 15). Change in melting temperature (ATm (°C)) represented the difference in Tm between aqueous (Aq.) and PFOc data. Tm for GFP in PFOc could not be achieved at the maximum temperature of 100 °C for the DSC experiments. Each protein was dissolved in PBS (Aq.) or PFNA/PFOc mixture. Dissolved proteins were heated to 75 °C (β-gal), 90 °C (GFP) or 80 °C (Trypsin); treatment temperatures were determined based on aqueous melting temperatures for each protein. Positive controls were maintained at room temperature (25 °C). […] Bioactivity was evaluated then via fluorescence measurements for GFP, or using colorimetric substrate conversion assays (ONPG for β-gal, BAEE for Trypsin). […]"}, "[2]": {"test": "β-Gal activity after bleach exposure", "assay_type": "physicochemical", "conditions": "β-Gal in PFOc", "experimental": "FIGS. 54A-54C depict the relative activity of the β-Gal protein dispersed in PBS or PFOc solvents without and with contamination by (FIG. 54A) proteinase K, (FIG. 54B) bleach or (FIG. 54C) hydrochloric acid. Data shown as average±s.d. of n=3 technical replicates. Statistical significance between conditions is indicated by a line using unpaired Student's t-test with n.s.=not significant, * p<0.05, ** p<0.01, and *** p<0.001.\nHere, stock of lyophilized β-Gal was prepared then dispersed in PBS or PFOc. A small volumetric quantity (1% v/v) of 10% bleach was added to the protein samples. Immediately, an equal volume of PBS containing 4 mg/mL ONPG substrate was added to the sample and incubated for 5 minutes to allow for complete substrate conversion. Last, absorbance was taken at 420 nm on the eluted samples, and relative activity was calculated by normalizing absorbance of converted ONPG in oxidizer-treated samples against their corresponding untreated group. […] Here, stock of lyophilized B-Gal was prepared then dispersed in PBS or PFOc. A small volumetric quantity (4% v/v) of 0.1 M HCl was added to the protein samples. After 30 seconds incubation, PBS containing 4 mg/mL ONPG was added to each of the samples to elute and start substrate conversion. After 3-minute conversion, the eluted samples were retrieved, and absorbance was read at 420 nm. […]"}}, "data": [{"molecule": "O=C(O)C(F)(F)C(F)(F)C(F)(F)C(F)(F)C(F)(F)C(F)(F)C(F)(F)C(F)(F)F", "note": "[Compound 7, perfluoronanonic acid]", "values": [{"measurement": "SPR response", "setting": "β-gal", "value": "negative responses"}, {"measurement": "uptake of GFP", "setting": "A549 cells", "value": "nominal increase in uptake"}, {"measurement": "concentration sufficient to induce ordered non-native structure", "setting": "tested proteins; many of the tested proteins", "value": 0.001, "unit": "mM"}, {"measurement": "increase in potency in inducing non-native protein secondary structure relative to TFE", "setting": "tested proteins; relative to trifluoroethanol", "value": "10^6"}]}, {"molecule": "β-Gal: β-Galactosidase (β-Gal), dissolved in PBS/saline or dispersed in PFOc", "values": [{"measurement": "thermal stability", "setting": "[1]", "value": "enhanced"}, {"measurement": "β-Gal activity versus PBS controls", "setting": "[2]; bleach", "value": "statistically higher than that of PBS controls"}, {"measurement": "loss in functionality", "setting": "[2]; bleach (1% v/v of 10% bleach), few minutes", "value": "≥ 50", "unit": "%"}]}]}
